Test results from patent publication US7073512B2, “Adhesion prevention and an endoscopic insufflation system therefor” (Saturnus AG, priority 1997, dated 2006).

Test system: adhesion formation
Experiment: Adhesion formation after CO2 laser injury under CO2 or CO2/O2 pneumoperitoneum, scored at second-look laparoscopy after one week
Type: in vivo, New Zealand white rabbits
Set-up: key to Mean total adhesion score: sum of extent (0-4), type (0-3), tenacity (0-3), inflammation (0-3)
Description: All animals received two standard CO2 laser injuries. A non opposing lesion was inflicted in the retro-uterine space, i.e. on the posterior utero-vaginal wall, consisting of a 2 cm^2; vaporization of the superficial layers with CO2 laser. In addition, an apposing lesion was performed in the oviduct and pelvic side wall, consisting of a 2 cm^2 vaporization, on both sides. The time required to induce the lesions varied from 3 to 7 minutes.
Animals were assigned randomly on a daily base, to one of the following seven experimental groups. First and second groups were considered control groups. In group 1, using conventional CO2 pneumoperitoneum, the total duration of the procedure was restricted to 10 minutes.
Adhesions were evaluated by laparoscopy after one week. All second look laparoscopies were videotaped, and subsequently scored blindly by two investigators, taking into account extent (0 to 4 points), type (0 to 3 points), tenacity (0 to 3 points) and inflammatory reaction (0 to 3 points) at the injury and at de-novo siteds.
Sixty five New Zealand white rabbits weighing between 2150 and 3000 grams were operated with a standard 3 puncture laparoscopy. Standard surgical injuries were inflicted with CO2 laser (Sharplan 1060: Sharplan, Tel Aviv, Israel) with a spot diameter of 1 mm and a power setting of 10 watts in the continuous superpulse mode. […] The output of both insufflators was mixed in a mixing chamber, humidified and warmed. The insufflation pressure was 10 cm of water and the intra-abdominal flow rate 20 l/min. It is obvious that all means in contact with O2 are adapted therefor.

SMILES | P of difference in total adhesion score versus control group with 100% CO2 (Group 2, 60′ CO2) (10′ CO2 (group 1)) | Mean total adhesion score (group 1: pure CO2 pneumoperitoneum, procedure restricted to 10 minutes) | Mean total adhesion score (group 2: pure CO2 pneumoperitoneum maintained 70 minutes) | Increase of adhesion scores, 60 min exposure in comparison with 10 min exposure (pure CO2, 60 min vs 10 min) [fold] | P of difference in total adhesion score versus control group with 100% CO2 (Group 2, 60′ CO2) (60′ 2.5% O2 (group 4)) | P of difference in total adhesion score versus control group with 100% CO2 (Group 2, 60′ CO2) (60′ 5% O2 (group 5)) | P of difference in total adhesion score versus control group with 100% CO2 (Group 2, 60′ CO2) (60′ 10% O2 (group 6)) | P of difference in total adhesion score versus control group with 100% CO2 (Group 2, 60′ CO2) (60′ 20% O2 (group 7)) | P of decrease in total adhesion score with the addition of O2 (de novo adhesions around the opposite tube) | Adhesiogenic effect of CO2 (from a final concentration of 5% oxygen onwards, together with CO2) | Mean total adhesion score (group 3: CO2 with 1% O2, pneumoperitoneum 70 minutes) | Mean total adhesion score (group 5: CO2 with 5% O2, pneumoperitoneum 70 minutes) | Mean total adhesion score (group 6: CO2 with 10% O2, pneumoperitoneum 70 minutes) | Mean total adhesion score (group 7: CO2 with 20% O2, pneumoperitoneum 70 minutes) | Amount of adhesions (increasing concentrations of oxygen in CO2 pneumoperitoneum) | P of decrease in total adhesion score with the addition of O2 (non opposing lesion in the pouch of Douglas) | P of decrease in total adhesion score with the addition of O2 (opposing lesion in tube/side wall)
O=C=O [CO2, carbon dioxide, reference compound] | P = 0.0002 | 4.5±3.7 | 17.5±6.7 | 4 |  |  |  |  |  |  |  |  |  |  |  |  | 
O=O [O2, oxygen] |  |  |  |  | P = 0.05 | P = 0.0005 | P = 0.007 | P = 0.005 | 0.0001 | completely abolished | 15.8±5.2 | 5.3±3.8 | 6.6±4.4 | 6.3±2.5 | decreased progressively | 0.0002 | 0.0014
